Results taken from publication PMC9864808, “Exploring Mannosylpurines as Copper Chelators and Cholinesterase Inhibitors with Potential for Alzheimer’s Disease” (Pharmaceuticals, 2022).
Several values for one entry are separate records, joined by “and”; a condition that tells them apart may be missing. Equal values may be shown once.

Key:
brain AChE = conditions: literature value determined for brain AChE; read-out: IC50 hAChE; cited from earlier work
serum BChE = conditions: literature value determined for serum BChE; read-out: IC50 hBChE; cited from earlier work
[1] = biological target: eeAChE (electric eel acetylcholinesterase) (Electrophorus electricus, UniProt O42275); assay: biochemical; conditions: for IC50: Ellman assay, means ± SD of three measurements; for inhibition at 20 µM: read-out: inhibition percentage eeAChE, at 20 μM
Sequence of eeAChE (electric eel acetylcholinesterase) (O42275 24-633): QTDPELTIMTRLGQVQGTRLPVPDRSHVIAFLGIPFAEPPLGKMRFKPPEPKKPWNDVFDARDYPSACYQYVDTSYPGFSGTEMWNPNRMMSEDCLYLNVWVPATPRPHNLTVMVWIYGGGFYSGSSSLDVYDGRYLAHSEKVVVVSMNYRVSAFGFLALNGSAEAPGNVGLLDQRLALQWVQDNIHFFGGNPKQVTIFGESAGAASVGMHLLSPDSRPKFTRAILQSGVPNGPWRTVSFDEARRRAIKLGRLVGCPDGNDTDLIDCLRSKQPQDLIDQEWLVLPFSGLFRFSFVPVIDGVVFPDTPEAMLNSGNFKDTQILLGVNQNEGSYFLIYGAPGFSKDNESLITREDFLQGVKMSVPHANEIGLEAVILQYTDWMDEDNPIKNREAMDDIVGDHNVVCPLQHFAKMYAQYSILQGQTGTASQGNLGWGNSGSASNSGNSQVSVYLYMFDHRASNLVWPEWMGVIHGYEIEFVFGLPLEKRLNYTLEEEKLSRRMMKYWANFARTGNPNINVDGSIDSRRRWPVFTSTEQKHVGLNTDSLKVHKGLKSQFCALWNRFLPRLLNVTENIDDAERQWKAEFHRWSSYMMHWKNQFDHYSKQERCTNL
Method: (§1) The in vitro inhibitory activities of novel purine nucleosides 5-10, 12, 13 and 15, and 16 were evaluated against both heterologous (electric eel eeAChE, horse eqBChE) and human (recombinant) cholinesterases isoforms, by applying the Ellmann colorimetric assay, with slight modifications. […] The test compounds were assayed for their inhibitory activity toward eeAChE (electric eel AChE) and eqBChE (horse serum BChE), respectively, following Ellman’s method with modifications. […] AChE inhibitory activity was determined similarly by using a solution of AChE (0.9 U/mL in 0.1 M pH 8.0 phosphate buffer, PB) and acetylthiocholine iodide (ATC, 0.05 mM in 0.1 M pH 8.0 phosphate buffer, PB) as substrate. The inhibition data are reported as means of IC50’s determined at least in three independent measurements.

[2] = biological target: T1, eqBChE (horse serum butyrylcholinesterase) (Equus caballus, UniProt P81908); assay: biochemical; conditions: for IC50: horse serum BChE, means ± SD of three measurements; for inhibition at 20 µM: read-out: inhibition percentage eqBChE
T1 construct: eqBChE (horse serum BChE); from tissue; host or cells: horse serum
T1 sequence (P81908 whole entry): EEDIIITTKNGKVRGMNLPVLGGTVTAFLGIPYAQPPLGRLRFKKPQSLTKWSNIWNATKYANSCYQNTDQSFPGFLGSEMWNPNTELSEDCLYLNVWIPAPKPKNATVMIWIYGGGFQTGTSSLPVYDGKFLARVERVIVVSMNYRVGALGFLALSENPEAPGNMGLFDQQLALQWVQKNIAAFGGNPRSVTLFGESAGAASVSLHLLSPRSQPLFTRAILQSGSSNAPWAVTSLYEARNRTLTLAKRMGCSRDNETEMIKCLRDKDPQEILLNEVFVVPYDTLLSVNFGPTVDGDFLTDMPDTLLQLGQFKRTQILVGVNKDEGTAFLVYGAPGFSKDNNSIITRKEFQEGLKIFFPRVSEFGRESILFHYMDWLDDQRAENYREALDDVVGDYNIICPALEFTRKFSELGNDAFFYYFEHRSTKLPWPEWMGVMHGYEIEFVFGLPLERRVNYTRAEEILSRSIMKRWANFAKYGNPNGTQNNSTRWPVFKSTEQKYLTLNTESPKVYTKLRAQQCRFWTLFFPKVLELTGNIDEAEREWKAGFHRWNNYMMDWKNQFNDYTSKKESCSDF
Method: as §1

[3] = biological target: hAChE (recombinant human isoform) (Homo sapiens, UniProt P22303); assay: biochemical; type: biochemical; conditions: for IC50: recombinant human isoform, means ± SD of three measurements; for inhibition at 20 µM: read-out: inhibition percentage hAChE
Sequence of hAChE (recombinant human isoform) (P22303 32-614): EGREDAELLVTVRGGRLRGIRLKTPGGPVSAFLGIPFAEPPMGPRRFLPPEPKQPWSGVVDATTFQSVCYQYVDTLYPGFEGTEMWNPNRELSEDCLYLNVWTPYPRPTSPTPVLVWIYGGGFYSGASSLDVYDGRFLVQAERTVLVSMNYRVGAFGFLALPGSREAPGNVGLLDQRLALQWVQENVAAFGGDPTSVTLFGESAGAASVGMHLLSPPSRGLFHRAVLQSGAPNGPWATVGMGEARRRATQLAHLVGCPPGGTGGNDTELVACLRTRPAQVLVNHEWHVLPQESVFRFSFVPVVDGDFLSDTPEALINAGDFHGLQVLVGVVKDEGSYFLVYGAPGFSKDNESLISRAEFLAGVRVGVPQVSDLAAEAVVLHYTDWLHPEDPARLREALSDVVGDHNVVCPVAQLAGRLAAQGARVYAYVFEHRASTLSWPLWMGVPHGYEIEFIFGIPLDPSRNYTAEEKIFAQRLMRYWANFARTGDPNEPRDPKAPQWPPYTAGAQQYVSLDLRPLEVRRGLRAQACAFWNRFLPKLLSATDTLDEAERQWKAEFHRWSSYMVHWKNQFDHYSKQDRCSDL
Method: (§2) The in vitro inhibitory activities of novel purine nucleosides 5-10, 12, 13 and 15, and 16 were evaluated against both heterologous (electric eel eeAChE, horse eqBChE) and human (recombinant) cholinesterases isoforms, by applying the Ellmann colorimetric assay, with slight modifications.
(§3) The test compounds were assayed for their inhibitory activity toward eeAChE (electric eel AChE) and eqBChE (horse serum BChE), respectively, following Ellman’s method with modifications. […] AChE inhibitory activity was determined similarly by using a solution of AChE (0.9 U/mL in 0.1 M pH 8.0 phosphate buffer, PB) and acetylthiocholine iodide (ATC, 0.05 mM in 0.1 M pH 8.0 phosphate buffer, PB) as substrate. The inhibition data are reported as means of IC50’s determined at least in three independent measurements.

[4] = biological target: hBChE (recombinant human isoform) (Homo sapiens, UniProt P06276); assay: biochemical; type: biochemical; conditions: for IC50: recombinant human isoform, means ± SD of three measurements
Sequence of hBChE (recombinant human isoform) (P06276 29-602): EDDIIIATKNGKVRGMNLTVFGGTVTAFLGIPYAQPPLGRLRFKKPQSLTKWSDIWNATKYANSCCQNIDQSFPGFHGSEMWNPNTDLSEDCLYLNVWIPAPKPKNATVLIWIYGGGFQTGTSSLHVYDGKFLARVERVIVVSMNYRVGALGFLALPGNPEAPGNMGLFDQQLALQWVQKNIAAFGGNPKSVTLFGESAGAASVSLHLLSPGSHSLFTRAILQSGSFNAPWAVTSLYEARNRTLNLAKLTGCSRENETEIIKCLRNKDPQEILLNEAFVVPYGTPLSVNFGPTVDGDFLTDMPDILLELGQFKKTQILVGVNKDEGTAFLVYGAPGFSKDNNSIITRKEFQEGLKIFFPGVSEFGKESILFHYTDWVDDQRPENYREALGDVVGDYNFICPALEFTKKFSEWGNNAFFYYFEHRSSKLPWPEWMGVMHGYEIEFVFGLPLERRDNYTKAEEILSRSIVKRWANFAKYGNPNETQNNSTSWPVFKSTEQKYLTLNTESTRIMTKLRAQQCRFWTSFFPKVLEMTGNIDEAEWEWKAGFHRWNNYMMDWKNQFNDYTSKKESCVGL
Method: as §2, §3

[5] = UV-Visible chelating study, copper; conditions: ions Cu^2+, Zn^2+, Fe^2+, Al^3+ as chlorides, water/DMSO
Method: (§4) The chelating activity of all purine nucleoside probes was evaluated by the UV-Visible method in order to determine compounds’ absorption spectra in the absence and in the presence of Cu^2+ at concentrations ranging from 1 μM to 10 μM. […] The resulting wavelength shift from λ = 280 to λ = 325 nm indicates a conformational rearrangement induced by interaction with Cu^2+.
(§5) UV-Visible spectroscopy offers the advantage of high sensitivity towards small changes that affect the electronic properties of ligand receptors, so absorption spectra of all reported compounds have been evaluated by recording UV-visible properties in subsequent conditions: 1.5 mL 1 × 10^−4M of the probe are added to 1.5 mL 2 × 10^−5M of each ion chloride salt’s solution (Copper Chloride (CuCl2), Zinc Chloride (ZnCl2), Iron (II) Chloride (FeCl2) and Aluminum Chloride (AlCl3)). A mixture of distilled water/DMSO 95:5 has been selected as a solvent for compounds 5–10 and 12. For compounds 14–16, the selected solvent was a mixture of distilled water/DMSO 90:10 due to poor water solubility. Furthermore, a titration assay of each compound has been carried out by adding increasing concentration of selected ion (final ion concentration = 1 µM, 2 µM, 3 µM, 5 µM, and 10 µM).

[6] = Water solubility (qualitative remark); type: physicochemical
[7] = UV-Visible chelating study, zinc; conditions: UV-Visible absorption
Method: as §4, §5

[8] = UV-Visible chelating study, iron; conditions: UV-Visible absorption
Method: as §4, §5

[9] = UV-Visible chelating study, aluminum; conditions: UV-Visible absorption
Method: as §4, §5

[10] = at 5 μM (lower water solubility), 5 µM

| Structure (SMILES) | IC50 [1] | IC50 [2] | IC50 [3] | IC50 [4] | eqBChE inhibition, result in words [2] | chelating activity / metal selectivity, result in words [5] | also measured |
| --- | --- | --- | --- | --- | --- | --- | --- |
| COc1ccc2c3c1O[C@H]1C[C@@H](O)C=C[C@@]31CCN(C)C2 [Galantamine] |  |  |  |  |  |  | IC50 (brain AChE): 5 ± 0.071 µM; IC50 (serum BChE): 59.2 ± 1.7 µM |
| Clc1ncnc2c1ncn2[C@H]1O[C@H](COCc2ccccc2)[C@@H](OCc2ccccc2)[C@H](OCc2ccccc2)[C@@H]1OCc1ccccc1 [Compound 1, 6-chloro-9-(2,3,4,6-tetra-O-benzyl-α-D-mannopyranosyl)purine, reference compound] | 2.4 ± 0.3 µM | 2.8 ± 0.3 µM |  |  |  |  |  |
| O=C(Nc1ncnc2c1ncn2[C@@H]1O[C@H](COCc2ccccc2)[C@@H](OCc2ccccc2)[C@H](OCc2ccccc2)[C@@H]1OCc1ccccc1)c1ccccc1 [Compound 6, 6-benzamido-9-(2,3,4,6-tetra-O-benzyl-β-D-mannopyranosyl)purine] | 10.6 ± 1.1 µM | 4.3 µM and 4.29 µM | 17 ± 0.75 µM | 4.6 µM and 4.58 µM |  |  |  |
| CC(=O)O[C@@H]1[C@@H](OC(C)=O)[C@H](C)O[C@@H](n2cnc3c(NC(=O)c4ccccc4)ncnc32)[C@@H]1OC(C)=O [Compound 12, 6-benzamido-9-(6-deoxy-2,3,4-tri-O-acetyl-α-L-mannopyranosyl)purine] | > 20 µM | > 20 µM |  |  | not active | selective Cu^2+ chelating agents | eeAChE inhibition, result in words [1]: not active; inhibition at 20 µM [1]: 8%; inhibition at 20 µM [2]: 5%; hAChE inhibition, result in words [3]: not active; hBChE inhibition, result in words [4]: not active |
| C[C@@H]1O[C@H](n2cnc3c(NC(=O)c4ccccc4)ncnc32)[C@H](OCc2ccccc2)[C@H](OCc2ccccc2)[C@H]1OCc1ccccc1 [Compound 16, 6-benzamido-9-(6-deoxy-2,3,4-tri-O-benzyl-β-L-mannopyranosyl)purine] | > 5 µM | > 5 µM | > 5 µM | > 5 µM |  | non-selective chelator | water solubility, in words [6]: dramatic reduction of aqueous solubility; inhibition percentage hBChE [4, 10]: 30 ± 7%; inhibition at 5 µM ([4]; at 5 μM (lower water solubility), read-out: inhibition percentage hBChE): < 50% |
| O=C(Nc1ncnc2ncn([C@@H]3O[C@H](COCc4ccccc4)[C@@H](OCc4ccccc4)[C@H](OCc4ccccc4)[C@@H]3OCc3ccccc3)c12)c1ccccc1 [Compound 8, 6-benzamido-7-(2,3,4,6-tetra-O-benzyl-β-D-mannopyranosyl)purine] | 2.6 µM and 2.61 µM | 4.4 ± 1.3 µM | 4.8 µM and 4.81 µM | 4.6 µM and 4.55 µM |  |  |  |
| C[C@@H]1O[C@@H](n2cnc3c(NC(=O)c4ccccc4)ncnc32)[C@H](OCc2ccccc2)[C@H](OCc2ccccc2)[C@H]1OCc1ccccc1 [Compound 15, 6-benzamido-9-(6-deoxy-2,3,4-tri-O-benzyl-α-L-mannopyranosyl)purine] | > 5 µM | > 5 µM | > 5 µM | > 5 µM |  | selective copper chelator | water solubility, in words [6]: dramatic reduction of aqueous solubility; inhibition at 5 µM ([1]; read-out: inhibition percentage eeAChE, at 5 μM (lower water solubility)): ≤ 50%; interaction with zinc ion, result in words [7]: no relevant interaction; interaction with iron ion, result in words [8]: no relevant interaction; inhibition percentage hAChE [3, 10]: 28 ± 3%; interaction with aluminum ion, result in words [9]: no relevant interaction |
| CC(=O)Nc1nc(Cl)c2c(ncn2[C@H]2O[C@H](COCc3ccccc3)[C@@H](OCc3ccccc3)[C@H](OCc3ccccc3)[C@@H]2OCc2ccccc2)n1 [Compound 2, reference compound] | 18.1 ± 4.8 µM | 0.05 ± 0.01 µM |  |  |  |  |  |
| C[C@H]1O[C@@H](n2cnc3c(NC(=O)c4ccccc4)ncnc32)[C@@H](OCc2ccccc2)[C@@H](OCc2ccccc2)[C@@H]1OCc1ccccc1 [Compound 10, 6-benzamido-9-(6-deoxy-2,3,4-tri-O-benzyl-β-D-mannopyranosyl)purine] | 15 ± 2.1 µM | 11.7 ± 1.2 µM | 17.8 ± 2.2 µM | 8.7 ± 1.35 µM | moderate inhibition |  |  |
| O=C(Nc1ncnc2ncn([C@H]3O[C@H](COCc4ccccc4)[C@@H](OCc4ccccc4)[C@H](OCc4ccccc4)[C@@H]3OCc3ccccc3)c12)c1ccccc1 [Compound 7, 6-benzamido-7-(2,3,4,6-tetra-O-benzyl-α-D-mannopyranosyl)purine] | > 20 µM | 10 ± 1.1 µM |  |  | selective |  |  |
| O=C(Nc1ncnc2c1ncn2[C@H]1O[C@H](COCc2ccccc2)[C@@H](OCc2ccccc2)[C@H](OCc2ccccc2)[C@@H]1OCc1ccccc1)c1ccccc1 [Compound 5, 6-benzamido-9-(2,3,4,6-tetra-O-benzyl-α-D-mannopyranosyl)purine] | > 20 µM | > 20 µM |  |  |  |  | inhibition at 20 µM [1]: 25%; inhibition at 20 µM [2]: 11% |
| C[C@@H]1O[C@@H](n2cnc3c(N(Cc4ccccc4)C(=O)c4ccccc4)ncnc32)[C@H](OCc2ccccc2)[C@H](OCc2ccccc2)[C@H]1OCc1ccccc1 [Compound 13, 6-benzamido-N-benzyl-9-(6-deoxy-2,3,4-tri-O-benzyl-α-L-mannopyranosyl)purine] | > 20 µM | 5.1 µM and 5.12 µM | > 20 µM | > 20 µM | selective | did not show chelating activity | inhibition at 20 µM [1]: 6%; interaction with zinc ion, result in words [7]: did not show chelating activity; interaction with iron ion, result in words [8]: did not show chelating activity; hAChE inhibition, result in words [3]: no activity; inhibition at 20 µM [3]: 8%; hBChE inhibition, result in words [4]: no activity; inhibition at 20 µM ([4]; at 20 μM, read-out: inhibition percentage hBChE): 25%; interaction with aluminum ion, result in words [9]: did not show chelating activity |
| C[C@H]1O[C@H](n2cnc3c(NC(=O)c4ccccc4)ncnc32)[C@@H](OCc2ccccc2)[C@@H](OCc2ccccc2)[C@@H]1OCc1ccccc1 [Compound 9, 6-benzamido-9-(6-deoxy-2,3,4-tri-O-benzyl-α-D-mannopyranosyl)purine] | 4.7 µM and 4.69 µM | > 20 µM | > 20 µM | 15.4 ± 1.1 µM |  |  | eeAChE inhibition, result in words [1]: selective inhibitor; inhibition at 20 µM [2]: 28%; inhibition at 20 µM [3]: 25%; hBChE inhibition, result in words [4]: selective inhibitor |
